Laboratory results taken from patent US20080051429A1, “USE OF 4-AMINO-PIPERIDINES FOR TREATING SLEEP DISORDERS” (priority 2006, published 2008).

Columns and labels:
Assay in all cases: R-SAT broad profiling
Format in all cases: cell-based
K-opiod = target: T1, K-opiod (Homo sapiens, UniProt P41145); settings: agonist; read-out: pEC50/pIC50 (converted)
T1 construct: expressed in transfected cells; host or cells: NIH3T3
Protocol: (§1) The functional receptor assay, Receptor Selection and Amplification Technology (R-SAT), was used (with minor modifications from that previously described U.S. Pat. No. 5,707,798) to screen compounds for efficacy at the 5-HT2A receptor. Briefly, NIH3T3 cells were grown in 96 well tissue culture plates to 70-80% confluence. Cells were transfected for 12-16 hours with plasmid DNAs using superfect (Qiagen Inc.) as per manufacture's protocols. R-SAT's were generally performed with 50 ng/well of receptor and 20 ng/well of Beta-galactosidase plasmid DNA. All receptor and G-protein constructs used were in the pSI mammalian expression vector (Promega Inc) as described in U.S. Pat. No. 5,707,798. The 5HT2A receptor gene was amplified by nested PCR from brain cDNA using the oligodeoxynucleotides based on the published sequence (see Saltzman et. al. Biochem. Biophys. Res. Comm. 181:1469-78 (1991)). Large-scale transfections, cells were transfected for 12-16 hours, then trypsinized and frozen in DMSO. Frozen cells were later thawed, plated at 10,000-40,000 cells per well of a 96 well plate that contained drug. With both methods, cells were then grown in a humidified atmosphere with 5% ambient CO2 for five days. Media was then removed from the plates and marker gene activity was measured by the addition of the beta-galactosidase substrate ONPG (in PBS with 5% NP-40). The resulting colorimetric reaction was measured in a spectrophotometric plate reader (Titertek Inc.)at […]. All data were analyzed using the computer program XLFit (IDBSm). Efficacy is the percent maximal repression compared to repression by a control compound (ritanserin in the case of 5HT2A). pIC50 is the negative of the log(IC50), where IC50 is the calculated concentration in Molar that produces 50% maximal repression.
(§2) The R-SAT assay (described above in example 136) was used to investigate the selectivity of 2-(4-Methoxyphenyl)-N-(4-methylbenzyl)-N-(1-methylpiperidin-4-yl)acetamide hydrochloride.

alpha 2B = target: T2, alpha 2B (Homo sapiens, UniProt P18089); settings: read-out: pEC50/pIC50 (converted)
T2 construct: expressed in transfected cells; host or cells: NIH3T3
T2 sequence (P18089 1-450): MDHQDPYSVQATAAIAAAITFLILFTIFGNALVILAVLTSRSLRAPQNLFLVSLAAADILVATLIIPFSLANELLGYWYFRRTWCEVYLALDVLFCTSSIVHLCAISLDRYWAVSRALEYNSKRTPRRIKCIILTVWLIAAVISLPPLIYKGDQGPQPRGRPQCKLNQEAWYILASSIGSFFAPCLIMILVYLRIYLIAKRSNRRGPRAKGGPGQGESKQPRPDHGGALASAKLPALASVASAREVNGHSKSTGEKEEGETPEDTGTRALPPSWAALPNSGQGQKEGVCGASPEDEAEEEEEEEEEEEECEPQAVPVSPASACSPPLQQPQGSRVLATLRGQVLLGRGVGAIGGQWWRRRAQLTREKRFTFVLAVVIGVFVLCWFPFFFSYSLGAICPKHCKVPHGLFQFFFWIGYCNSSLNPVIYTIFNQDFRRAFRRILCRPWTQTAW
Protocol: as §1, §2

beta 1 = target: T3, beta 1 (Homo sapiens, UniProt P08588); settings: read-out: pEC50/pIC50 (converted)
T3 construct: expressed in transfected cells; host or cells: NIH3T3
Protocol: as §1, §2

endothelinB = target: T4, endothelinB (Homo sapiens, UniProt P24530); settings: agonist; read-out: pEC50/pIC50 (converted)
T4 construct: expressed in transfected cells; host or cells: NIH3T3
Protocol: as §1, §2

m2 = target: T5, m2 (Homo sapiens, UniProt P08172); settings: read-out: pEC50/pIC50 (converted)
T5 construct: expressed in transfected cells; host or cells: NIH3T3
T5 sequence (P08172 1-466): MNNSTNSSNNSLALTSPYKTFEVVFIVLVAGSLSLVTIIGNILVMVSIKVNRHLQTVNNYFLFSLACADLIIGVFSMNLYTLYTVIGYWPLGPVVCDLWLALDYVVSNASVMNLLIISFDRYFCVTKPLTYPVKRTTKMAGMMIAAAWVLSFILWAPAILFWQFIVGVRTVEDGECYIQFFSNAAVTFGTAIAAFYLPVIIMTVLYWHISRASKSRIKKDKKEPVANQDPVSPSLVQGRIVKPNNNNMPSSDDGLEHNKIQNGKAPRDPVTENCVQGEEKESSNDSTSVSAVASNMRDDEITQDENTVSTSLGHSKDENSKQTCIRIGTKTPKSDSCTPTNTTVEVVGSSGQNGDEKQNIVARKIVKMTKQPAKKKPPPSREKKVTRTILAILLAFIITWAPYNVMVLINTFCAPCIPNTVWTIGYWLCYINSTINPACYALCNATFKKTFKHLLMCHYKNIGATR
Protocol: as §1, §2

m5 = target: T6, m5 (Homo sapiens, UniProt P08912); settings: read-out: pEC50/pIC50 (converted)
T6 construct: expressed in transfected cells; host or cells: NIH3T3
T6 sequence (P08912 1-532): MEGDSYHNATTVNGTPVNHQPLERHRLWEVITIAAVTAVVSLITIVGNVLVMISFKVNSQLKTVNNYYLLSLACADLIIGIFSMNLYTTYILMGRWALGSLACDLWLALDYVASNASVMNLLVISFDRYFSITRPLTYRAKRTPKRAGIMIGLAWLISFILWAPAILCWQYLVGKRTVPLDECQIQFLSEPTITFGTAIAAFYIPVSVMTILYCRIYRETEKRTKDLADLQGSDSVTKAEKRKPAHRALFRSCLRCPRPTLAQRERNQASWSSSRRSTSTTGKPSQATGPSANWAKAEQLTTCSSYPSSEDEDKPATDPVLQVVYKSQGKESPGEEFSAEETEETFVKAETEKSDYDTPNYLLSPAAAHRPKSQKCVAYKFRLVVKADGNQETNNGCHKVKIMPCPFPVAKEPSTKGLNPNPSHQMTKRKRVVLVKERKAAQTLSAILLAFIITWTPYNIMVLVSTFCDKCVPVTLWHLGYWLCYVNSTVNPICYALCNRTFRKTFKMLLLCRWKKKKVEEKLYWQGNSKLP
Protocol: as §1, §2

T3 sequence (P08588 whole entry): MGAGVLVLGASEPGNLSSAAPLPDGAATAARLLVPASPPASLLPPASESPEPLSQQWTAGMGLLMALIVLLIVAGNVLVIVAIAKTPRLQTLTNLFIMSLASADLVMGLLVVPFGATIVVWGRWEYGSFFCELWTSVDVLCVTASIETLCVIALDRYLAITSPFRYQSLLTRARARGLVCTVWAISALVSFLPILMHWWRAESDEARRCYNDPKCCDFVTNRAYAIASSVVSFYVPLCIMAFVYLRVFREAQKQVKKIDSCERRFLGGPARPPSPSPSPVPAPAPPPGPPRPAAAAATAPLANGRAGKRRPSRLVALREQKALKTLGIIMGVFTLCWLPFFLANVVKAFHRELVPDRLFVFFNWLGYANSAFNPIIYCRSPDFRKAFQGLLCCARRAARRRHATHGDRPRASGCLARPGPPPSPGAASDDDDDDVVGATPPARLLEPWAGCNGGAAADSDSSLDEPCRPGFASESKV
T4 sequence (P24530 27-442): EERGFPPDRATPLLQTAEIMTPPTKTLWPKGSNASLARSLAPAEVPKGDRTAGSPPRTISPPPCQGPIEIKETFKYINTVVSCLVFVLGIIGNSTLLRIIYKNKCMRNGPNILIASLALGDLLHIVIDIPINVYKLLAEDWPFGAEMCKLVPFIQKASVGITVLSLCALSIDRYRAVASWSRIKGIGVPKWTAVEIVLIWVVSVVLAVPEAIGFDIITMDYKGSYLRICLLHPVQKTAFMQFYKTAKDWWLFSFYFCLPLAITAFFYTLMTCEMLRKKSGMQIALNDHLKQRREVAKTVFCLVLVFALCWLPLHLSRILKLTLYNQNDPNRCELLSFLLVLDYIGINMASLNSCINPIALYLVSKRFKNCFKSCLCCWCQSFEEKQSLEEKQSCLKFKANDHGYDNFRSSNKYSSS
T1 sequence (P41145 whole entry): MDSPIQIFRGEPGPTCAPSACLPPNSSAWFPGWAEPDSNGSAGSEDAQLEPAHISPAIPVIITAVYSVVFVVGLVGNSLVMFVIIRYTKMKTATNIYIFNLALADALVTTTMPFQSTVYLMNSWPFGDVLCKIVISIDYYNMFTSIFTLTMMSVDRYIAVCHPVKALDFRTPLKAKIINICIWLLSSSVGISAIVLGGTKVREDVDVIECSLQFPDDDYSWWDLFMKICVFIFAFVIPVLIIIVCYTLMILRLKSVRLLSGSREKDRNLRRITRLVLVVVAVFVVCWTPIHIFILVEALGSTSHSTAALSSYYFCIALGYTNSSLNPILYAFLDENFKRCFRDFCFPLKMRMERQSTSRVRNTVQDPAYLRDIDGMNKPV

EC50 (K-opiod): > 3.16 µM
EC50 (alpha 2B; agonist): > 3.16 µM
IC50 (alpha 2B; antagonist): > 3.16 µM
EC50 (beta 1; agonist): > 3.16 µM
IC50 (beta 1; antagonist): > 3.16 µM
EC50 (endothelinB): > 3.16 µM
EC50 (m2; agonist): > 3.16 µM
IC50 (m2; antagonist): > 3.16 µM
EC50 (m5; agonist): > 3.16 µM
IC50 (m5; antagonist): > 3.16 µM
Structure (SMILES): COc1ccc(CC(=O)N(Cc2ccc(C)cc2)C2CCN(C)CC2)cc1 [Example 50ELH27, 2-(4-Methoxyphenyl)-N-(4-methylbenzyl)-N-(1-methylpiperidin-4-yl)acetamide]
